Measured values taken from US20210128675A1, “LHRH-PACLITAXEL CONJUGATES AND METHODS OF USE” (priority 2019, published 2021).
“Also recorded” adds a separate entry of the source.

Tests used:
[1] = system: knocked down LHRH receptors of breast cancer cells; assay: alamar blue reduction after siRNA knockdown of LHRH receptors; assay type: cell-based, human; details: cells treated with siRNAs; 5 μM; 24, 48 and 72 hours
[2] = system: MDA-MB-231 human triple negative breast cancer cells xenograft; assay: subcutaneous xenograft tumor shrinkage study; assay type: in vivo, Athymic Nude-Foxn1nu strain mice; details: for tumor volume, 21-day group: after about two weeks, mean volume before treatment 98 mm^3; for xenograft tumor size, 28-day group: two weeks of drug administration, mean volume before treatment 230 mm^3; for tumor outcome, early stage (day 14 group): 10 mg/kg
Description: In this section, cell culture, tumor induction and drug injection studies were carried out. First, 20 μl of 1×10^6 MDA-MB-231 human triple negative cancer cells were cultured in T75 tissue culture flasks (CELLTREAT, Pepperell, Mass., USA). This was carried out at 37° C. until 70% confluence was reached. The cells were grown under normal atmospheric pressure levels in a “L15′ medium” that is typically made up of: L-15 medium (ATCC, Manassas, Va., USA), supplemented with 100 I.U./ml penicillin/100 µg/ml streptomycin and 10% FBS (ATCC, Manassas, Va., USA).
Forty 4-weekold Athymic Nude-FoxnInu strain mice with individual weights of ˜17 g each was purchase from Envigo (Somerset, N.J., USA). These animals were approved for use in the current work by the University of Massachusetts Medical School Institutional Animal Care and Use Committee (UMMS IACUC) with docket #A2630-17. All of the animals were maintained and used according to the approved UMMS IACUC procedure and guideline.
Subcutaneous tumor xenografts were induced by the injection of 5.0×10^6 of MDA-MB-231 human triple negative breast cancer cells (suspended in sterile saline) into the interscapular region (for a better angiogenic response). Tumor formation was carefully assessed by palpation. Tumor growth was then monitored daily with the digital calipers. The tumor volume was calculated using the following modified ellipsoidal formula: […]
where length was the longest axis of the tumor and width is the measurement at a right angle to the length.
The mice were randomly chosen in groups of three (for each drugs injection) into their respective treatment groups. These include groups of mice with early stage (14 days after tumor induction), mid stage (21 days after tumor induction) and late stage (28 days after tumor induction) tumors. The weights of the mice and their tumor sizes were monitored and measured (using digital calipers) on a daily basis. These precise volumes and measured weights of the mice were used to guide the administration of the drugs. They were also used to monitor toxicity and side effects associated with the drugs. For each of the study groups, 3 mice each were randomly assigned to injection of 10 mg/kg of the specific drug configuration (PTX, [D-Lys6]LHRH-conjugated PTX and DMSO).
Different groups of mice were injected intravenously with each drug through their tail veins. This was done after tumor growth for 14, 21 and 28 days. The mice were injected with 10 mg/kg per week, during the two-week periods in which the effects of drugs were investigated. Following each drug administration, the tumor sizes were monitored with calipers on a daily basis (every 24 hours). In this way, the possible tumor shrinkage, growth or elimination, were monitored on a daily basis. Furthermore, the health status of the mice was monitored on a daily basis. This was done by monitoring the mice for signs of weight loss or altered motor ability in their cages. At the end of study, the mice were euthanized, following the approved IACUC guidelines and procedures. Thereafter, tumor tissues were excised from all of the mice, including tissues from their major organs (kidneys, spleen, liver and lungs).

[3] = histopathological and toxicity studies; details: 10 mg/kg weekly for two weeks; for qualitative toxicity (mortality, body weight, clinical signs): tumor-bearing mice
Description: Double doses of 10 mg/kg of PTX and PTX-[D-Lys6]LHRH were then administered (on a weekly basis for two weeks) to female athymic nude mice that were subcutaneously-induced with TNBC. In this way, qualitative toxicity was studied by considering differences in mortality, changes in body weight, clinical signs, gross observations and the histopathology of the lungs, kidneys and the liver at different stages of tumor development. This was done for the different drugs and cancer treatment durations. Daily observations and weight measurements were also used to check for possible animal reactions to the drugs, physiological changes, weight loss/gain, and the general well-being of the mice.
Hematoxylin and eosin (H and E) staining was also carried out. This was used for the identification of tumor necrosis and the examination of histologic changes that occurred in vital organs, following the administration of the drugs. Briefly, formalin-fixed, paraffin-embedded tissue/organs (tumor, kidneys, liver and lungs) samples (5 m) were injected with PTX, [D-Lys6]LHRH-conjugated PTX drugs and DMSO. These were hydrated by passing them through decreasing concentrations (100, 90 &70%) of alcohol baths and water.
The hydrated tissue sections were then stained in hematoxylin solution for 5 mins. This was followed by rinsing with tap water for 3 minutes and differentiation in 1% acid alcohol for 5 minutes. Tap water was then used to rinse (three times) before dipping the sections in ammonia water for 2 minutes. This was followed by staining with eosin for 10 mins. The treated sliced samples were dehydrated in solution with increasing concentrations of alcohols followed by xylene. Finally, a few drops of Permount Mounting Medium were used to mount the resulting samples. The stained slides were then imaged with a 20× objective lens using a TS100F Nikon microscope (Nikon Instruments Inc., Melville, N.Y., USA) coupled with a DS-Fi3 C camera.

[4] = system: triple negative breast tumor; assay: drug-tissue adhesion study (drug-coated AFM tip); assay type: binding, mice
Description: In an effort to understand the specificity in the targeting of triple negative breast cancer via the receptors that are over-expressed on the tumor, adhesion measurements were carried out on the control xenograft tissue samples at different stages of tumor development. Adhesion forces and interactions (between the different drug molecules and receptors on the surfaces of the tumor tissues at different stages of development) were explored in an effort to understand the interactions of the drugs with the tumor and non-tumor tissue.
Antigen retrieval was carried out on the fixed tissue. This involved exposing target antigens to receptors on a […] thick microtome tissue slice. These sliced tissues were prepared for adhesion measurements in an Asylum MFP3D-Bio Atomic Force Microscope (AFM) (Asylum Research, Oxford Instrument, CA, USA). The AFM tips RESP-20 AFM tip (Bruker Santa Barbara, Calif., USA) were dip-coated with paclitaxel or [D-Lys6]LHRH-conjugated paclitaxel using the techniques described in Obayemi et al. (J. Mech. Behav. Biomed. Mater., 68 (2017), pp. 276-286).
A simple AFM tip dip-coating technique (J. D. Obayemi et al. Materials Science and Engineering C. 66, (2016), 51-65, Hampp, E. et al. Res. 27 (22), 2891, Hutter, J. L. et al. Instrum. 64, 1868) (of the drugs) was used to coat the AFM tips at room-temperature (˜23° C.). In addition, a positive control of LHRH peptides was coated onto the AFM tips and used to determine the adhesion forces between the receptors on breast cancer tissue. All of the coated AFM tips were air-dried for about 6 h and kept in a desiccator overnight before the adhesion measurements.
The spring constants of the coated and uncoated AFM tips were measured experimentally using the thermal tune method (J.D. Obayemi, et al. Mater., 68 (2017), 276-286). This was done to obtain the actual spring constants that were used to calculate the pull-off forces from Hooke's law. The adhesion interactions were measured for the following configurations of coatings on the AFM tips and breast cancer tumor at different stages on the mice: […]

MDA-MB-231 cells = assay: confocal fluorescence imaging of cellular uptake and cytotoxicity; assay type: cell-based, human; details: 30 μM, 6 hours
MDA MB 231 cells = assay: alamar blue cell viability and cytotoxicity assay; assay type: cell-based, human
Description: The alamar blue cell viability and cytotoxicity assay was used to study the MDA MB 231 cells lines in the log phase of growth. MDA MB 231 cells were harvested with trypsin-EDTA in the presence of Dulbecco Phosphate Buffer (DPBS). 10^4 cells/well were then seeded in 12-well plates in L15+ medium (L15 medium with cell medium supplement of FBS and penicillin/streptomycin). After a 3-hour attachment period (of the cells), respective concentrations of 15 μM, 25 μM and 30 μM of paclitaxel, LRH-conjugated paclitaxel (of Example 1) and DMSO (in culture medium) were added to the 12-well plates consisting of 10^4 cells. Cell viability was monitored using the alamar blue cell viability and cytotoxicity reagent (Thermo Fisher Scientific, Waltham, Mass., USA) at times of 0 h, 18 h, 24 h, 48 h and 72 h, following drug addition. At each time point, the culture medium was replaced with 1 ml of 10% alamar blue solution (in culture medium). The 12-well plates were then incubated at 37° C. for different durations. After each time point, 100 µl of the solution incubated with alamar blue solution (ABS) was transferred into triplicate wells of a black opaque 96-well plate (Thermo Fisher Scientific, Waltham, Mass., USA).
The fluorescence intensities of the cell medium supernatant incubated with ABS were measured at 544 nm excitation and 590 nm emission using a 1420 Victor3 multi-label plate reader (Perkin Elmer, Waltham, Mass., USA). The percentage of alamar blue reduction, the percentage difference in cell population between the treated and untreated cells, and the percentage of cell growth inhibition, were determined using a combination of the ABS and cell viability studies. […]
where, FIsample=fluorescence intensity of the (treated or untreated) cells, FI10% AB=fluorescence intensity of 10% alamar blue reagent (negative control) and FI10% R=fluorescence intensity of 100% reduced alamar blue (positive control).
FItreated=fluorescence intensity of treated cells and FIcells=fluorescence intensity of untreated cells

[5] = 10 mg/kg per week IV, two weeks

CC(=O)O[C@H]1C(=O)[C@@]2(C)[C@H]([C@H](OC(=O)c3ccccc3)[C@]3(O)C[C@H](OC(=O)[C@H](O)[C@@H](NC(=O)c4ccccc4)c4ccccc4)C(C)=C1C3(C)C)[C@]1(OC(C)=O)CO[C@@H]1C[C@@H]2O [PTX, paclitaxel]
cell viability, PTX versus LHRH-conjugated PTX [1]: no significant differences in cell viability
tumor volume, 21-day group ([2]; 10 mg/kg per week IV): 86.83 mm^3
final tumor sizes, day 14 group ([2]; two IV injections (one per week) of 10 mg/kg, mean volume before treatment 67 mm^3): ~49.1 mm^3
xenograft tumor size, 28-day group ([2]; 10 mg/kg per week IV): 299.2 mm^3

LHRH-PTX
cell viability, PTX versus LHRH-conjugated PTX [1]: no significant differences in cell viability
qualitative toxicity (mortality, body weight, clinical signs) [3]: No clinical signs, differences in mortality, or changes in body weight
qualitative toxicity (mortality, body weight, clinical signs) ([3]; listed as [D-Lys6]LHRH-conjugated paclitaxel): without any evidence of toxicity
histopathology of liver, lung and kidneys (H&E) ([3]; listed as [D-Lys6]LHRH-conjugated PTX): no significant histological or significant pathological changes; also recorded: no evidence of liver cell hyaline degeneration and necrosis, and no pulmonary edema or hyperplasia observed in the lungs
adhesion force relative to unconjugated PTX, early stage tumor [4]: nearly three times
adhesion force relative to unconjugated PTX, late stage tumor [4]: about 2 times
adhesion force relative to unconjugated PTX, mid stage tumor [4]: more than three times
disruption of actin filaments, vinculin structures and cell membranes (MDA-MB-231 cells): more evident
percentage cell growth inhibition (MDA MB 231 cells; 15 μM, 25 μM, and 30 μM, 72 h): effective at inhibiting the growth of MDA MB 231 cells
cytotoxicity on coincubation with LHRH (MDA MB 231 cells; coincubation of LHRH, 72 h): decreased the cytoxicity
cell viability (percentage alamar blue reduction) compared with unconjugated drug (MDA MB 231 cells; without siRNA, 18, 24, 48 and 72 h): significantly reduced cell viability than the unconjugated drugs
tumor outcome, mid- and late-stage tumors (21 and 28 days) ([2]; 10 mg/kg IV): significant shrinkage
decrease in xenograft volume compared to unconjugated PTX, 21-day group [2, 5]: 91%
percentage reduction in xenograft tumor volume compared to unconjugated PTX, 28-day group [2, 5]: 90.2%
structural changes in tumor cells/tissue (TEM) ([2]; 21-day and 28-day treatment groups): greater structural changes
tumor volume, 21-day group ([2]; 10 mg/kg per week IV): 7.76 mm^3
necrosis in tumor tissue (H&E) ([2]; compared with unconjugated PTX): higher levels of necrosis in the tumors
tumor outcome, early stage (day 14 group) ([2]; two IV injections (one per week) of 10 mg/kg, listed as LHRH-conjugated paclitaxel): elimination of early stage breast tumors
tumor outcome, early stage (day 14 group) ([2]; two IV injections (one per week) of 10 mg/kg, listed as [D-Lys6]LHRH-conjugated PTX): eliminated
tumor outcome, early stage (day 14 group) ([2]; two IV injections (one per week) of 10 mg/kg, listed as [D-Lys6]LHRH-conjugated paclitaxel): eliminated the tumors
xenograft tumor size, 28-day group ([2]; 10 mg/kg per week IV): 29.4 mm^3
